“And” between values parts separate entries of the source, which are not always exact repeats. Equal entries are not always repeated. Inconclusive results and toxic doses are left out.
Tested on: P388 leukemia ip, CD2F1 mice, survival T/C
Experiment: NCI In Vivo Anticancer Drug Screen. Data for tumor model P388 Leukemia (intraperitoneal) in CD2F1 (CDF1) mice
Conditions: endpoint: median survival time, higher = longer survival
Summary of the method: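 Mice carrying the transplanted tumor received test compound or vehicle. Survival was recorded in each group, and the value is the treated-group measurement divided by that of the vehicle-treated control group.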

[1] = dose: 50.0 mg/kg/injection, schedule: Q01DX009 (ip), vehicle: Klucel (hydroxypropylcellulose) (HPC)
[2] = dose: 100.0 mg/kg/injection, schedule: Q01DX009 (ip), vehicle: Klucel (hydroxypropylcellulose) (HPC)
[3] = dose: 200.0 mg/kg/injection, schedule: Q01DX009 (ip), vehicle: Klucel (hydroxypropylcellulose) (HPC)
[4] = dose: 25.0 mg/kg/injection, schedule: Q01DX009 (ip), vehicle: saline
[5] = dose: 100.0 mg/kg/injection, schedule: Q01DX009 (ip), vehicle: saline
[6] = dose: 25.0 mg/kg/injection, schedule: Q01DX005 (ip), vehicle: Klucel (hydroxypropylcellulose) (HPC)
[7] = dose: 50.0 mg/kg/injection, schedule: Q01DX005 (ip), vehicle: Klucel (hydroxypropylcellulose) (HPC)
[8] = dose: 100.0 mg/kg/injection, schedule: Q01DX005 (ip), vehicle: Klucel (hydroxypropylcellulose) (HPC)
[9] = dose: 200.0 mg/kg/injection, schedule: Q01DX005 (ip), vehicle: Klucel (hydroxypropylcellulose) (HPC)
[10] = dose: 50.0 mg/kg/injection, schedule: Q01DX005 (ip), vehicle: saline with Tween-80
[11] = dose: 100.0 mg/kg/injection, schedule: Q01DX005 (ip), vehicle: saline with Tween-80
[12] = dose: 50.0 mg/kg/injection, schedule: Q01DX009 (ip), vehicle: saline with Tween-80
[13] = dose: 12.5 mg/kg/injection, schedule: Q01DX009 (ip), vehicle: saline with Tween-80
[14] = dose: 25.0 mg/kg/injection, schedule: Q01DX009 (ip), vehicle: saline with Tween-80

Cc1ccc2c(I)cc(I)c(O)c2n1
T/C [1]: 107 % of control | T/C [2]: 102 % of control | T/C [3]: 100 % of control

C=C1C(=O)C23CC1CCC2C12COC(OC(=O)CCCCCCCCCCC)C1C(C)(C)C(O)CC2OC3=O (stereo unspecified)
T/C (dose: 7.5 mg/kg/injection, schedule: Q01DX009 (ip), vehicle: saline with Tween-80): 103 % of control | T/C (dose: 15.0 mg/kg/injection, schedule: Q01DX009 (ip), vehicle: saline with Tween-80): 95 % of control | T/C (dose: 30.0 mg/kg/injection, schedule: Q01DX009 (ip), vehicle: saline with Tween-80): 103 % of control | T/C (dose: 60.0 mg/kg/injection, schedule: Q01DX009 (ip), vehicle: saline with Tween-80): 103 % of control

CN(C)CCC(OC(=O)c1ccccc1Cl)c1ccccc1 (stereo unspecified)
T/C [4]: 99 % of control and 100 % of control and 101 % of control | T/C (dose: 50.0 mg/kg/injection, schedule: Q01DX009 (ip), vehicle: saline): 101 % of control and 107 % of control and 117 % of control | T/C [5]: 108 % of control and 116 % of control

CCCCCCCCCCCC(=O)NC(=O)N1CCOCC1
T/C (dose: 100.0 mg/kg/injection, schedule: Q01DX001 (ip), vehicle: saline with Tween-80): 95 % of control | T/C (dose: 200.0 mg/kg/injection, schedule: Q01DX001 (ip), vehicle: saline with Tween-80): 100 % of control | T/C (dose: 400.0 mg/kg/injection, schedule: Q01DX001 (ip), vehicle: saline with Tween-80): 100 % of control

OC(C(=S)N1CCCC1)(c1ccccc1)c1ccccc1
T/C [1]: 103 % of control | T/C [2]: 103 % of control | T/C [3]: 100 % of control

COC(=O)[C@@H]1O[C@H]1c1ccccn1
T/C [6]: 96 % of control | T/C [7]: 97 % of control | T/C [8]: 100 % of control | T/C [9]: 97 % of control

COc1ccccc1N=NC1=C2Nc3ccccc3N=C1N(c1ccccc1OC)C(=S)N2c1ccccc1C
T/C [10]: 102 % of control | T/C [11]: 103 % of control

Nc1ccc2nc[nH]c(=O)c2c1
T/C (dose: 3.0 mg/kg/injection, schedule: Q01DX005 (ip), vehicle: Klucel (hydroxypropylcellulose) (HPC)): 96 % of control | T/C (dose: 6.25 mg/kg/injection, schedule: Q01DX005 (ip), vehicle: Klucel (hydroxypropylcellulose) (HPC)): 95 % of control | T/C (dose: 12.0 mg/kg/injection, schedule: Q01DX005 (ip), vehicle: Klucel (hydroxypropylcellulose) (HPC)): 101 % of control | T/C (dose: 12.5 mg/kg/injection, schedule: Q01DX005 (ip), vehicle: Klucel (hydroxypropylcellulose) (HPC)): 100 % of control | T/C [6]: 111 % of control

CC(C)(C)OC1CCC2=CC(=O)CCC21C (stereo unspecified)
T/C (dose: 100.0 mg/kg/injection, schedule: Q04DX002 (ip), vehicle: other): 119 % of control

O=C(c1ccccc1)C(O)NC(=S)c1cccnc1 (stereo unspecified)
T/C [12]: 106 % of control | T/C (dose: 100.0 mg/kg/injection, schedule: Q01DX009 (ip), vehicle: saline with Tween-80): 107 % of control | T/C (dose: 200.0 mg/kg/injection, schedule: Q01DX009 (ip), vehicle: saline with Tween-80): 116 % of control

CCc1ccc2c(c1)C(O)(C#Cc1ccccc1)c1cc(CC)ccc1C2(O)C#Cc1ccccc1 (stereo unspecified)
T/C (dose: 100.0 mg/kg/injection, schedule: Q04DX002 (ip), vehicle: saline with Tween-80): 93 % of control | T/C (dose: 200.0 mg/kg/injection, schedule: Q04DX002 (ip), vehicle: saline with Tween-80): 93 % of control | T/C (dose: 400.0 mg/kg/injection, schedule: Q04DX002 (ip), vehicle: saline with Tween-80): 93 % of control

CC1(C)C(O)C(C)(C)C1O (stereo unspecified)
T/C [13]: 100 % of control | T/C [14]: 100 % of control | T/C [12]: 100 % of control

O=C1CSC(c2cccs2)N1c1nccs1 (stereo unspecified)
T/C [7]: 102 % of control | T/C [8]: 106 % of control | T/C [9]: 100 % of control

CC[C@@]12CN3CCc4c([nH]c5ccccc45)[C@@](C(=O)OC)(c4cc5c(cc4OC)N(C=O)[C@H]4[C@@](O)(C(=O)OC)[C@H](OC(C)=O)[C@]6(CC)C=CCN7CC[C@]54[C@@H]76)C[C@H](C3=O)[C@@H]1O2
T/C (dose: 4.0 mg/kg/injection, schedule: Q01DX001 (ip), vehicle: water): 113 % of control and 118 % of control | T/C (dose: 8.0 mg/kg/injection, schedule: Q01DX001 (ip), vehicle: water): 115 % of control and 116 % of control | T/C (dose: 32.0 mg/kg/injection, schedule: Q01DX001 (ip), vehicle: water): 118 % of control

NCCS(=O)(=O)O
T/C (dose: 100.0 mg/kg/injection, schedule: Q01DX009 (ip), vehicle: water): 90 % of control | T/C (dose: 200.0 mg/kg/injection, schedule: Q01DX009 (ip), vehicle: water): 86 % of control | T/C (dose: 400.0 mg/kg/injection, schedule: Q01DX009 (ip), vehicle: water): 86 % of control | T/C (dose: 800.0 mg/kg/injection, schedule: Q01DX009 (ip), vehicle: water): 90 % of control

CCCCCCCCCCCCCCCCCC(=O)CS(C)(=O)=O
T/C (dose: 50.0 mg/kg/injection, schedule: Q01DX009 (ip), vehicle: suspension in saline): 100 % of control | T/C (dose: 100.0 mg/kg/injection, schedule: Q01DX009 (ip), vehicle: suspension in saline): 100 % of control | T/C (dose: 200.0 mg/kg/injection, schedule: Q01DX009 (ip), vehicle: suspension in saline): 97 % of control

O=C(NNc1ncccn1)c1ccc(C(=O)NNc2ncccn2)cc1
T/C (dose: 7.5 mg/kg/injection, schedule: Q01DX005 (ip), vehicle: saline with Tween-80): 94 % of control | T/C (dose: 15.0 mg/kg/injection, schedule: Q01DX005 (ip), vehicle: saline with Tween-80): 93 % of control

CCCCCC(C(=O)O)(c1ccccc1)c1ccccc1
T/C [10]: 106 % of control | T/C [11]: 106 % of control | T/C (dose: 200.0 mg/kg/injection, schedule: Q01DX005 (ip), vehicle: saline with Tween-80): 106 % of control

Cc1cc(=O)n2c3c(c4c(cc13)c(CN(C)C)cc(=O)n4C)OC2
T/C [13]: 111 % of control | T/C [14]: 152 % of control | T/C [12]: 102 % of control and 118 % of control

COn1nnc2ccc(N)cc21
T/C (dose: 100.0 mg/kg/injection, schedule: Q04DX002 (ip), vehicle: saline): 99 % of control | T/C (dose: 200.0 mg/kg/injection, schedule: Q04DX002 (ip), vehicle: saline): 102 % of control

Cc1cc(C)nc(NC(=O)Nc2cc(Cl)ccc2C)c1
T/C (dose: 60.0 mg/kg/injection, schedule: Q01DX005 (ip), vehicle: Klucel (hydroxypropylcellulose) (HPC)): 88 % of control | T/C (dose: 120.0 mg/kg/injection, schedule: Q01DX005 (ip), vehicle: Klucel (hydroxypropylcellulose) (HPC)): 86 % of control | T/C (dose: 240.0 mg/kg/injection, schedule: Q01DX005 (ip), vehicle: Klucel (hydroxypropylcellulose) (HPC)): 89 % of control

CCO/C=C1/N=C(c2cc([N+](=O)[O-])cc([N+](=O)[O-])c2C)OC1=O
T/C (dose: 60.0 mg/kg/injection, schedule: Q01DX005 (ip), vehicle: saline + Tween-80 + alcohol): 93 % of control | T/C (dose: 120.0 mg/kg/injection, schedule: Q01DX005 (ip), vehicle: saline + Tween-80 + alcohol): 94 % of control | T/C (dose: 240.0 mg/kg/injection, schedule: Q01DX005 (ip), vehicle: saline + Tween-80 + alcohol): 88 % of control

CC(=O)c1c(O)cc2c(c1O)C1CC(C)(CCC1=C(C)C)O2 (stereo unspecified)
T/C (dose: 6.25 mg/kg/injection, schedule: Q01DX009 (ip), vehicle: saline): 105 % of control | T/C (dose: 12.5 mg/kg/injection, schedule: Q01DX009 (ip), vehicle: saline): 105 % of control | T/C [4]: 107 % of control | T/C [5]: 90 % of control | T/C (dose: 200.0 mg/kg/injection, schedule: Q01DX009 (ip), vehicle: saline): 89 % of control

O=C1C[C@@H]2OC3=C(C(=O)CCC3)[C@@H]2O1
T/C (dose: 60.0 mg/kg/injection, schedule: Q01DX005 (ip), vehicle: saline): 102 % of control | T/C (dose: 120.0 mg/kg/injection, schedule: Q01DX005 (ip), vehicle: saline): 121 % of control | T/C (dose: 240.0 mg/kg/injection, schedule: Q01DX005 (ip), vehicle: saline): 119 % of control

CC(=O)[C@]1(O)Cc2c(O)c3c(c(O)c2[C@@H](OC2CC(N)C(O)C(C)O2)C1)C(=O)c1c(OCc2ccccc2)cccc1C3=O (stereo partly specified)
T/C (dose: 12.5 mg/kg/injection, schedule: Q04DX003 (ip), vehicle: distilled water + Tween-80): 101 % of control | T/C (dose: 100.0 mg/kg/injection, schedule: Q04DX003 (ip), vehicle: distilled water + Tween-80): 91 % of control

Source: PubChem BioAssay AID330 (DTP/NCI, 2004)
